Values quoted from earlier work as cited in PMC9884426, “A phase 1 clinical trial of the repurposable acetyllysine mimetic, n-methyl-2-pyrrolidone (NMP), in relapsed or refractory multiple myeloma” (Clinical Epigenetics, 2023).

Set-up: method as in PMID 9029058
Conditions: human, cited from earlier work; for elimination half-life: NMP metabolites; for amount found in urine: after a single 100 mg oral dose of NMP

Row | Compound | elimination half-life [h] | amount found in urine [%]
1 | CN1C(=O)CC(O)C1=O (centres unmarked) [2-HMSI, 2-hydroxy-N-methylsuccinimide] | 17 | 20
2 | CN1C(=O)CCC1O (centres unmarked) [5-HNMP, 5-hydroxy-N-methyl-2-pyrrolidone] |  | 44
3 | CN1C(=O)CCC1=O [MSI, N-methylsuccinimide] | 8 | 0.4
